Test results: patent publication US20250263404A1, “AMINOPYRIDINES AS ACTIVATORS OF PI3 KINASE” (UCL Business Ltd, priority 2021, published 2025)

Tests used:
[1] = molecular target: PI3Kα (Homo sapiens, UniProt P42336); assay: ADP-Glo in vitro lipid kinase assay, PI3Kα; format: biochemical; design: Full-length p110α was expressed in a complex with full-length p85α (for biochemistry and HDX-MS); 6xHis followed by TEV protease site (N); made in house; host or cells: Spodoptera frugiperda Sf9 (baculovirus co-infection; plasmids OP831 and OP809); details: for EC50: in vitro PI3Kα activation; for Max. activity relative to pY ctrl: relative to pY control
Chain of PI3Kα (P42336 whole entry, the tested form may be a part): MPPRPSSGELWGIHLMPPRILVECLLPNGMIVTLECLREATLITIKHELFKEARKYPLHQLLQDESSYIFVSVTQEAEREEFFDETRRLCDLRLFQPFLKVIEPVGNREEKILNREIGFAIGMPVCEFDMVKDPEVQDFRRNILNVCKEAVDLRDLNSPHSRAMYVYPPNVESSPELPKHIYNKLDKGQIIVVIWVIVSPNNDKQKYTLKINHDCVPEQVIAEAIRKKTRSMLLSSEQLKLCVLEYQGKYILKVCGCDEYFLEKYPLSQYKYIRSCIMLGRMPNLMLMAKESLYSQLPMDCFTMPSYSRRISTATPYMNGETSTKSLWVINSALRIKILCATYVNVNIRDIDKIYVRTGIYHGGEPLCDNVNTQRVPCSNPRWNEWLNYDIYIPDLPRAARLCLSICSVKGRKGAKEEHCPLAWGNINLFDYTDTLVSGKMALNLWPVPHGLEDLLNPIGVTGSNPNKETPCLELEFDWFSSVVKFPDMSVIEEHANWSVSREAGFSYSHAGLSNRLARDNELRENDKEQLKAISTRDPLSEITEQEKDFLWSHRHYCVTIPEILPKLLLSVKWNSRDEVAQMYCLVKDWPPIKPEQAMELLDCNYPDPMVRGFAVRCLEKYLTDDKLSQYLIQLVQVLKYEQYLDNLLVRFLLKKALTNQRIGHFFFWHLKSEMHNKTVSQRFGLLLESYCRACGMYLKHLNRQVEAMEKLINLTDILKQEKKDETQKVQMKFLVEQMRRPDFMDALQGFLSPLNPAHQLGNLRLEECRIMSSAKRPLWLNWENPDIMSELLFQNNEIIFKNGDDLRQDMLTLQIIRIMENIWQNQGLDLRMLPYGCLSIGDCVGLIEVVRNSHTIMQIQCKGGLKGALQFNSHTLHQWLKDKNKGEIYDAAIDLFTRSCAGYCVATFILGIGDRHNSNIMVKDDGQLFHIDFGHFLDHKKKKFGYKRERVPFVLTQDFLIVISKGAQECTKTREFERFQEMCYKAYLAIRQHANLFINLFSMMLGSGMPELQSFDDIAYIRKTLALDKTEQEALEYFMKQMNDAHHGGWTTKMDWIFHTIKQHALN
Chain of PI3Kα (P27986 whole entry partner, the tested form may be a part): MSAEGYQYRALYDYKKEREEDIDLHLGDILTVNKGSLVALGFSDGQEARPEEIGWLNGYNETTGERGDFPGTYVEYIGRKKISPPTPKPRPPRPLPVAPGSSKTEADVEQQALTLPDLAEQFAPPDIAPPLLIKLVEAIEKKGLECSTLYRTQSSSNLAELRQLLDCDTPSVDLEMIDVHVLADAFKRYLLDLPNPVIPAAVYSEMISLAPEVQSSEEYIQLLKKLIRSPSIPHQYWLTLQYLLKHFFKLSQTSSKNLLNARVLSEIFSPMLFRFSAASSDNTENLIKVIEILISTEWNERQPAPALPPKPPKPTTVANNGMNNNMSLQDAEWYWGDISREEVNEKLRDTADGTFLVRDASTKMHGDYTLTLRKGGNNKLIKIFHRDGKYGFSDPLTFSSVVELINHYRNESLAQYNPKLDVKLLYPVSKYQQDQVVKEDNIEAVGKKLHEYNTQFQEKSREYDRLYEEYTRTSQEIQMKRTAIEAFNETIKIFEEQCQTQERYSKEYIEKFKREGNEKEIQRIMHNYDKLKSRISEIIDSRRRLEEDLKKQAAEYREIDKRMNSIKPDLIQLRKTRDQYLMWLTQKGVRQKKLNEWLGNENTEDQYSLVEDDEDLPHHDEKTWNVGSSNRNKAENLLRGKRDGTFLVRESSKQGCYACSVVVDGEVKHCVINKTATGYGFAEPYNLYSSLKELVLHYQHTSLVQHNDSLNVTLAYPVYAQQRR
Protocol: The effect of 1938 on the in vitro lipid kinase activity of p85α in complex with p110α, p110β or p110δ (further referred to as PI3Kα, PI3Kβ and PI3Kδ) was tested. As a positive control, a bis-phosphorylated phosphopeptide (a PDGF-receptor-derived peptide phosphorylated on Tyr-740 and Tyr-751, hereafter referred to as pY peptide) was used to mimic engagement of the p85α SH2 domains with tyrosine-phosphorylated peptides in membrane-bound receptors and adaptor proteins, known to activate the PI3Kα complex.
Kinase reactions were performed with ADP-Glo kinase assay kit (Promega Corporation). The enzyme, substrate and compounds were diluted in reaction buffer (20 mM HEPES, 50 mM NaCl, 50 mM KCl, 3 mM MgCl2, 1 mM EGTA, 1 mM TCEP, pH 7.4). Final concentrations of PI3Kα and PI3Kδ used were 25 nM and 50 nM for PI3Kβ. Liposomes (5% brain PI(4,5)P2, 20% brain phosphatidylserine, 45% brain phosphatidylethanolamine, 15% brain phosphatidylcholine, 10% cholesterol, 5% sphingomyelin (Avanti Polar Lipids)) were used at a final concentration of 1 mg/ml.
For compound profiling, the reaction mixture contained 2 μl PI3K enzyme, 2 μl compound and/or pY and 2 μl of liposome substrate mixed with ATP. ATP was used at a final concentration of 500 μM for PI3Kα and PI3Kβ and at 200 μM for PI3Kδ, unless otherwise stated. The final DMSO concentration in the assay was 1%. The experiments were performed at room temperature for 3 h using 384 white-polystyrene plates (Corning #3824) before addition of 6 μl of ADP-Glo R1 to terminate the reaction. The plate was incubated for 45 min, followed by addition of 12 μl of ADP-Glo R2 and incubated further for 60 min in the dark. Luminescence was read using a Sense (Hidex) plate reader. […] All analyses were performed using GraphPad Prism 7.
For characterisation of the effects of 1938 on in vitro PI3K enzymology, all reactions were performed at room temperature with 384 white-polystyrene plates (Corning #3574). The final DMSO concentration in the assay was between 0.5%-1.8%. The reaction mixture contained 2 μl PI3K enzyme, 2 μl compound and/or pY and 2 μl of liposome substrate mixed with ATP. ATP was used at a final concentration of 200 μM, unless otherwise stated. The enzyme and compounds were pre-incubated for 10 min prior to addition of substrate. The reaction was allowed to proceed for 45 min at room temperature, before addition of 6 μl of ADP-Glo R1 to terminate the reaction. The plate was incubated for 60 min, followed by addition of 12 μl of ADP-Glo R2 and incubated further for 60 min in the dark. For enzyme kinetic calculations, data was expressed as velocity (pmol of ADP generated/sec). ADP-ATP standard curves were performed according to the manufacturer's instructions, and all analyses were performed using GraphPad Prism 8.

[2] = Solubility (comparison in words); format: physicochemical

## COc1cc(Nc2cc(Nc3cccc4c3N(C(C)=O)CC4)ccn2)cc(OC)c1OC [Example 1887]
[1]
  activity compared with 1938 (in words): activities comparable with 1938
  EC50: 36 ± 5 µM
  Max. activity relative to 1938: 80%
  Max. activity relative to pY ctrl: 318 ± 68%

## COc1cc(N2CCN(C)CC2)ccc1Nc1cc(Nc2cccc3c2N(C(C)=O)CC3)ccn1 [Example 1889]
[1]
  activity compared with 1938 (in words): activities comparable with 1938
  EC50: 56 ± 24 µM
  Max. activity relative to 1938: 102%
  Max. activity relative to pY ctrl: 408 ± 110%

## CC(=O)N1CCc2cccc(Nc3ccnc(Nc4ccccc4)c3)c21 [Example 2016]
[2]
  solubility compared with 1938 (in words): less soluble than 1938
[1]
  Max. activity relative to 1938: 9%
  Max. activity relative to pY ctrl: 36 ± 8%
[1]; structure-activity comparison with 1938
  reduction in activity: more than 90%

## CCN1CCN(c2ccc(Nc3cc(Nc4ccncn4)ccn3)cc2)CC1 [Example 2106]
[1]
  Max. activity relative to 1938: 4%
  Max. activity relative to pY ctrl: 14 ± 13%

## CCN1CCN(c2ccc(Nc3nccc(Nc4cccc5c4N(C(C)=O)CC5)n3)cc2)CC1 [Example 2152]
[1]
  Max. activity relative to 1938: 4%
  Max. activity relative to pY ctrl: 16 ± 8%
